Results reported in US20230242530A1, “8-(AZETIDIN-1-YL)-[1,2,4]TRIAZOLO[1,5-A]PYRIDINYL COMPOUNDS, COMPOSITIONS AND METHODS OF USE THEREOF” (Genentech, Inc., priority 2016, published 2023).

What was measured:
[1] = target: T1, isolated recombinant JAK1 kinase domain (Homo sapiens, UniProt P23458); assay: JAK enzyme assay, JAK1 kinase domain (Caliper LabChip); format: biochemical; conditions: 1.5 nM JAK1, ATP 25 μM, Morrison tight binding model
T1 construct: isolated recombinant JAK1 and JAK2 kinase domain
Procedure: (§1) JAK Enzyme Assays were Carried Out as Follows:
(§2) The activity of the isolated recombinant JAK1 and JAK2 kinase domain was measured by monitoring phosphorylation of a peptide derived from JAK3 (Val-Ala-Leu-Val-Asp-Gly-Tyr-Phe-Arg-Leu-Thr-Thr, fluorescently labeled on the N-terminus with 5-carboxyfluorescein) using the Caliper LabChip® technology (Caliper Life Sciences, Hopkinton, Mass.). […] Reactions were incubated at 22 °C in 384-well polypropylene microtiter plates for 30 minutes and then stopped by addition of 25 μL of an EDTA containing solution (100 mM HEPES buffer (pH 7.2), 0.015% Brij-35, 150 mM EDTA), resulting in a final EDTA concentration of 50 mM. After termination of the kinase reaction, the proportion of phosphorylated product was determined as a fraction of total peptide substrate using the Caliper LabChip® 3000 according to the manufacturer's specifications. Ki values were then determined using the Morrison tight binding model (Morrison, J. F., Biochim. Biophys. Acta. 185:269-296 (1969); William, J. W. and Morrison, J. F., Meth. Enzymol., 63:437-467 (1979)) modified for ATP-competitive inhibition [Ki=Ki,app/(1+[ATP]/Km,app)].

[2] = tested on: JAK1-dependent STAT6 phosphorylation downstream of IL-13 stimulation in BEAS-2B cells; assay: JAK1 pathway assay in cell lines: IL-13 p-STAT6 BEAS-2B; format: cell-based; conditions: BEAS-2B human bronchial epithelial cells, 1 hr compound, IL-13 15 min, MSD readout
Procedure: JAK1 Pathway Assay in Cell Lines was Carried Out as Follows:
Inhibitor potency (EC50) was determined in cell-based assays designed to measure JAK1 dependent STAT phosphorylation. As noted above, inhibition of IL-4, IL-13, and IL-9 signalling by blocking the Jak/Stat signaling pathway can alleviate asthmatic symptoms in pre-clinical lung inflammation models (Mathew et al., 2001, J Exp Med 193(9): 1087-1096; Kudlacz et. al., 2008, Eur J. Pharmacol 582(1-3): 154-161).
In one assay approach, TF-1 human erythroleukemia cells obtained from the American Type Culture Collection (ATCC; Manassas, Va.) were used to measure JAK1-dependent STAT6 phosphorylation downstream of IL-13 stimulation. Prior to use in the assays, TF-1 cells were starved of GM-CSF overnight in OptiMEM medium (Life Technologies, Grand Island, N.Y.) supplemented with 0.5% charcoal/dextran stripped fetal bovine serum (FBS), 0.1 mM non-essential amino acids (NEAA), and 1 mM sodium pyruvate. The assays were run in 384-well plates in serum-free OptiMEM medium using 300,000 cells per well. In a second assay approach, BEAS-2B human bronchial epithelial cells obtained from ATCC were plated at 100,000 cells per well of a 96-well plate one day prior to the experiment. The BEAS-2B assay was run in complete growth medium (bronchial epithelial basal medium plus bulletkit; Lonza; Basel, Switzerland).
Test compounds were serially diluted 1:2 in DMSO and then diluted 1:50 in medium just before use. Diluted compounds were added to the cells, for a final DMSO concentration of 0.2%, and incubated for 30 mi (for the TF-1 assay) or 1 hr (for the BEAS-2B assay) at 37 QC. Then, cells were stimulated with human recombinant cytokine at their respective EC90 concentrations, as previously determined for each individual lot. Cells were stimulated with IL-13 (R&D Systems, Minneapolis, Minn.) for 15 min at 37 °C. The TF-1 cell reactions were stopped by the direct addition of 10× lysis buffer (Cell Signaling Technologies, Danvers, Mass.), whereas the BEAS-2B cell incubations were halted by the removal of medium and addition of 1× lysis buffer. The resultant samples were frozen in the plates at −80 °C. Compound mediated inhibition of STAT6 phosphorylation was measured in the cell lysates using MesoScale Discovery (MSD) technology (Gaithersburg, Md.). EC50 values were determined as the concentration of compound required for 50% inhibition of STAT phosphorylation relative to that measured for the DMSO control.

[3] = target: T2, isolated recombinant JAK2 kinase domain (Homo sapiens, UniProt O60674); assay: JAK enzyme assay, JAK2 kinase domain (Caliper LabChip); format: biochemical; conditions: 0.2 nM JAK2, ATP 25 μM, Morrison tight binding model
T2 construct: isolated recombinant JAK1 and JAK2 kinase domain
Procedure: as §1, §2

T2 sequence (O60674 849-1124 limits assumed): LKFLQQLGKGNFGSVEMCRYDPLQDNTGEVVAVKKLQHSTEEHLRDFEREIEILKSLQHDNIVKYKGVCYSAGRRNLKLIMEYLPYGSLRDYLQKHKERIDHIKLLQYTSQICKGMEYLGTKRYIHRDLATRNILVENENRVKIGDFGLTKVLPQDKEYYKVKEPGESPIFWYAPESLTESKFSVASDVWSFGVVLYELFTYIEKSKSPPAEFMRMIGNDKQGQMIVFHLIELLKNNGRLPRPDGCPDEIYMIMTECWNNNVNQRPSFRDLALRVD
T1 sequence (P23458 875-1153 limits assumed): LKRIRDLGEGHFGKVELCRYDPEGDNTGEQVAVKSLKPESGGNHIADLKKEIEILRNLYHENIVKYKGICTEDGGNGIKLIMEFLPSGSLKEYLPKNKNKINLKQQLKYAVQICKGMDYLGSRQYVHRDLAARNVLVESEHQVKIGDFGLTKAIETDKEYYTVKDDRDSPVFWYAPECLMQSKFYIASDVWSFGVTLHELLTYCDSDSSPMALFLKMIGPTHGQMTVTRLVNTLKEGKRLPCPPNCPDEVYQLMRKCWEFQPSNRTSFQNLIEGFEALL

SMILES	Ki [1]	Ki [3]	EC50 [2]
CN1CCN(C(=O)Cn2cc(Nc3nc4c(N5CC(CC#N)(Cc6ccccc6)C5)cccn4n3)cn2)CC1 [Example 26, 2-[3-benzyl-1-[2-[[1-[2-(4-methylpiperazin-1-yl)-2-oxo-ethyl]pyrazol-4-yl]amino]-[1,2,4]triazolo[1,5-a]pyridin-8-yl]azetidin-3-yl]acetonitrile]	0.4 nM	2.1 nM	42 nM
CN1CCN(C(=O)Cn2cc(Nc3nc4c(N5CC(CC#N)(n6cc(C#N)cn6)C5)cccn4n3)cn2)CC1 [Example 87, 1-[3-(cyanomethyl)-1-[2-[[1-[2-(4-methylpiperazin-1-yl)-2-oxo-ethyl]pyrazol-4-yl]amino]-[1,2,4]triazolo[1,5-a]pyridin-8-yl]azetidin-3-yl]pyrazole-4-carbonitrile]	0.2 nM	0.7 nM	17 nM
CN1CCN(C2CCN(C(=O)Cn3cc(Nc4nc5c(N6CC(CC#N)(c7cccc(Cl)c7)C6)cccn5n4)cn3)CC2)CC1 [Example 70, 2-[3-(3-chlorophenyl)-1-[2-[[1-[2-[4-(4-methylpiperazin-1-yl)-1-piperidyl]-2-oxo-ethyl]pyrazol-4-yl]amino]-[1,2,4]triazolo[1,5-a]pyridin-8-yl]azetidin-3-yl]acetonitrile]	0.2 nM	0.3 nM	10 nM
CCc1cnn(C2(CC#N)CN(c3cccn4nc(Nc5ccc(C(=O)NCc6ccc(C)nc6)cc5)nc34)C2)c1 [Example 64, 4-[[8-[3-(cyanomethyl)-3-(4-ethylpyrazol-1-yl)azetidin-1-yl]-[1,2,4]triazolo[1,5-a]pyridin-2-yl]amino]-N-[(6-methyl-3-pyridyl)methyl]benzamide]	0.3 nM	0.2 nM	15 nM
CN1CCN(C(=O)Cn2cc(Nc3nc4c(N5CC(CC#N)(N6CCC(C#N)CC6)C5)cccn4n3)cn2)CC1 [Example 13, 1-[3-(cyanomethyl)-1-[2-[[1-[2-(4-methylpiperazin-1-yl)-2-oxo-ethyl]pyrazol-4-yl]amino]-[1,2,4]triazolo[1,5-a]pyridin-8-yl]azetidin-3-yl]piperidine-4-carbonitrile]	1.6 nM	5.3 nM	82 nM
CCc1cnn(C2(CC#N)CN(c3cccn4nc(Nc5cnn(C)c5)nc34)C2)c1 [Example 127, 2-(3-(4-ethyl-1H-pyrazol-1-yl)-1-(2-((1-methyl-H-pyrazol-4-yl)amino)-[1,2,4]triazolo[1,5-a]pyridin-8-yl)azetidin-3-yl)acetonitrile]	0.2 nM	0.4 nM	10 nM
CCc1cnn(C2(CC#N)CN(c3cccn4nc(Nc5ccc(C(=O)N6CCN(C7CCOCC7)CC6)cc5)nc34)C2)c1 [Example 37, 2-[3-(4-ethylpyrazol-1-yl)-1-[2-[4-(4-tetrahydropyran-4-ylpiperazine-1-carbonyl)anilino]-[1,2,4]triazolo[1,5-a]pyridin-8-yl]azetidin-3-yl]acetonitrile]	0.5 nM	2.9 nM	23 nM
CCc1cnn(C2(CC#N)CN(c3cccn4nc(Nc5cnn(CC(=O)N6CCC(NCC7(C#N)CC7)CC6)c5)nc34)C2)c1 [Example 4, 1-[[(1-[2-[4-([8-[3-(cyanomethyl)-3-(4-ethyl-1H-pyrazol-1-yl)azetidin-1-yl]-[1,2,4]triazolo[1,5-a]pyridin-2-yl]amino)-1H-pyrazol-1-yl]acetyl]piperidin-4-yl)amino]methyl]cyclopropane-1-carbonitrile]	0.6 nM	4.6 nM	39 nM
CN(CC1(C#N)CC1)C1CCN(C(=O)Cn2cc(Nc3nc4c(N5CC(CC#N)(n6cc(C(F)(F)F)cn6)C5)cccn4n3)cn2)CC1 [Example 109, 1-[[[1-[2-[4-[[8-[3-(cyanomethyl)-3-[4-(trifluoromethyl)pyrazol-1-yl]azetidin-1-yl]-[1,2,4]triazolo[1,5-a]pyridin-2-yl]amino]pyrazol-1-yl]acetyl]-4-piperidyl]-methyl-amino]methyl]cyclopropane carbonitrile]	0.5 nM	0.4 nM	58 nM
CN1CCN(C(=O)Cn2cc(Nc3nc4c(N5CC(CC#N)(c6ccc(F)c(Cl)c6)C5)cccn4n3)cn2)CC1 [Example 83, 2-[3-(3-chloro-4-fluoro-phenyl)-1-[2-[[1-[2-(4-methylpiperazin-1-yl)-2-oxo-ethyl]pyrazol-4-yl]amino]-[1,2,4]triazolo[1,5-a]pyridin-8-yl]azetidin-3-yl]acetonitrile]	0.2 nM	0.2 nM	14 nM

The next lines start with results.

Ki [1]	Ki [3]	SMILES	EC50 [2]
0.3 nM	0.9 nM	CN1CCN(C(=O)Cn2cc(Nc3nc4c(N5CC(CC#N)(CCc6ccccc6)C5)cccn4n3)cn2)CC1 [Example 76]	16 nM
0.3 nM	1.7 nM	N#CCC1(n2cc(C(F)(F)F)cn2)CN(c2cccn3nc(Nc4ccc(C(=O)N5CCN(C6COC6)CC5)cc4)nc23)C1 [Example 103, 2-[1-[2-[4-[4-(oxetan-3-yl)piperazine-1-carbonyl]anilino]-[1,2,4]triazolo[1,5-a]pyridin-8-yl]-3-[4-(trifluoromethyl)pyrazol-1-yl]azetidin-3-yl]acetonitrile]	33 nM
0.5 nM	3.7 nM	Cc1ccccc1-c1cnn(C2(CC#N)CN(c3cccn4nc(Nc5cnn(CC(=O)N6CCN(C7COC7)CC6)c5)nc34)C2)c1 [Example 122, formic acid;2-[3-[4-(o-tolyl)pyrazol-1-yl]-1-[2-[[1-[2-[4-(oxetan-3-yl)piperazin-1-yl]-2-oxo-ethyl]pyrazol-4-yl]amino]-[1,2,4]triazolo[1,5-a]pyridin-8-yl]azetidin-3-yl]acetonitrile]	43 nM
0.7 nM	4.1 nM	CCc1cnn(C2(CC#N)CN(c3cccn4nc(Nc5ccc(C(=O)N6CCN(C)CC6)cc5)nc34)C2)c1 [Example 38, 2-(3-(4-ethyl-1H-pyrazol-1-yl)-1-(2-((4-(4-methylpiperazine-1-carbonyl)phenyl)amino)-[1,2,4]triazolo[1,5-a]pyridin-8-yl)azetidin-3-yl)acetonitrile]	615 nM
0.1 nM	0.3 nM	CSc1cnn(C2(CC#N)CN(c3cccn4nc(Nc5cn[nH]c5)nc34)C2)c1 [Example 144, 2-[3-(4-methylsulfanyIpyrazol-1-yl)-1-[2-(1H-pyrazol-4-ylamino)-[1,2,4]triazolo[1,5-a]pyridin-8-yl]azetidin-3-yl]acetonitrile]	7 nM
0.3 nM	1.3 nM	Cc1ccccc1-c1cnn(C2(CC#N)CN(c3cccn4nc(Nc5cnn(CC(=O)N6CCC(N7CCOCC7)CC6)c5)nc34)C2)c1 [Example 123]	87 nM
0.4 nM	1.1 nM	N#CCC1(n2cc(Br)cn2)CN(c2cccn3nc(Nc4cnn(CC(=O)N5CCC(N6CCOCC6)CC5)c4)nc23)C1 [Example 130, 2-[3-(4-bromopyrazol-1-yl)-1-[2-[[1-[2-(4-morpholino-1-piperidyl)-2-oxo-ethyl]pyrazol-4-yl]amino]-[1,2,4]triazolo[1,5-a]pyridin-8-yl]azetidin-3-yl]acetonitrile]	117 nM
